# Experimental data: patent US20250375398A1
# Where two headings read alike, the source gives them in different places.
# Columns and labels:
# [1] = tested on: SARS-CoV-2; assay type: cell-based; conditions: remdesivir alone, dose-dependent; control around 10^6 TCID50/mL
# [2] = tested on: SARS-CoV-2 virus [B.1.351]; assay type: in vivo, mice
# [3] = tested on: SARS-CoV-2; assay: microbe, parasite or virus in culture
# [4] = tested on: SARS-CoV-2; conditions: for host cell viability, normalized to remdesivir alone (5 μM) / host cell viability (in words): infected Vero E6, 72 hours
# [5] = tested on: SARS-CoV-2 virus [B.1.351]; assay type: in vivo, mice; conditions: day 4
compound,measurement,setting,value
CCC(CC)COC(=O)[C@H](C)N[P@](=O)(OC[C@H]1O[C@@](C#N)(c2ccc3c(N)ncnn23)[C@H](O)[C@@H]1O)Oc1ccccc1 [Remdesivir],viral titer of SARS-CoV-2,[1],zero
same,"infectious titers in lung, in words","[2]; remdesivir 25 mg/kg daily intraperitoneally, day 4 post infection",strongest antiviral effect in reducing infectious titer
same,"infectious titers in lung (plaque forming unit per mg of tissues), in words","[2]; remdesivir 5, 10 or 25 mg/kg daily intraperitoneally from day 1 post infection, day 4",dose-dependent effect on reducing infectious titers
same,viability at 5 µM,"[3]; Severe acute respiratory syndrome coronavirus 2, Vero C1008, 72 h, read-out: host cell viability, normalized to remdesivir alone (5 μM)",100%
same,viability at 1.25 µM,"[3]; Severe acute respiratory syndrome coronavirus 2, Vero C1008, read-out: host cell viability",26%
same,"host cell viability, normalized to remdesivir alone (5 μM)","[4]; hypericin 0 μM, remdesivir 0.3125 μM",19.8%
same,"host cell viability, normalized to remdesivir alone (5 μM)","[4]; hypericin 0 μM, remdesivir 0.625 μM",21.9%
same,"host cell viability, normalized to remdesivir alone (5 μM)","[4]; hypericin 0 μM, remdesivir 1.25 μM",25.2%
same,"host cell viability, normalized to remdesivir alone (5 μM)","[4]; hypericin 0 μM, remdesivir 2.5 μM",38.1%
same,host cell viability (in words),[4]; remdesivir (5 μM) alone,dose-dependently improved host cell viability
same,"infectious titers in lung compared to vehicle, in words",[5]; Remdesivir 10 mg/kg daily from day 1 post infection,did not impact infectious titers compared to vehicle
same,mice in which all infectious titers in lung were eliminated,[5]; Remdesivir 25 mg/kg daily from day 1 post infection,4 out of 7
Cc1cc(O)c2c(=O)c3c(O)cc(O)c4c5c(O)cc(O)c6c(=O)c7c(O)cc(C)c8c1c2c(c34)c(c78)c65 [Hypericin],"host cell viability, normalized to remdesivir alone (5 μM)","[4]; hypericin 1.563 μM, remdesivir 0 μM",14.6%
same,"host cell viability, normalized to remdesivir alone (5 μM)","[4]; hypericin 3.125 μM, remdesivir 0 μM",12.9%
same,"host cell viability, normalized to remdesivir alone (5 μM)","[4]; hypericin 6.25 μM, remdesivir 0 μM",12.8%
same,"host cell viability, normalized to remdesivir alone (5 μM)","[4]; hypericin 12.5 μM, remdesivir 0 μM",20.4%
same,"host cell viability, normalized to remdesivir alone (5 μM)","[4]; hypericin 25 μM, remdesivir 0 μM",62.0%
same,"host cell viability, normalized to remdesivir alone (5 μM)","[4]; hypericin 50 μM, remdesivir 0 μM",62.6%
same,"host cell viability, normalized to remdesivir alone (5 μM)","[4]; hypericin 100 μM, remdesivir 0 μM",38.0%
same,host cell viability (in words),[4]; hypericin (25-50 μM) alone,modest improvements in host cell viability
same,host cell viability,"[4]; hypericin alone, 12.5-50 μM",20-62%
same,mice in which all infectious titers in lung were eliminated,"[5]; Hypericin 20 mg/kg, pre-treatment from two days prior to infection",5 out of 7
